Patent US9662387B2, “Functional, cross-linked nanostructures for tandem optical imaging and therapy” (Mallinckrodt LLC, priority 2010, dated 2017)
Like-named read-outs stand apart in the source and are kept apart here.

How the values were obtained:
[1] = Core loading of phototherapeutic agent into micelles; assay type: physicochemical; details: poly(p-hydroxystyrene) core; shown previously
Experimental: Core loading was achieved by addition of MP-3397 stock solution (in DMF) into aqueous micelle solution followed by removal of organic solvent through dialysis. Alternatively, MP-3397 stock solution incubated with block copolymer (both in DMF) underwent co-assembly upon addition of water followed by dialysis. In an example, poly(p-hydroxystyrene) core achieved maximum of 5 wt % core loading whereas polystyrene core achieved ca. 15 wt %.

[2] = tested on: KB cells; assay: EST-1 cell viability assay using KB cells (cell cytotoxicity); assay type: cell-based; details: Homo sapiens
Experimental: Table 3 provides 1050 data for the EST-1 cell viability assay using KB cells with 2 hour treatment with the particles described above. […] HPLC and MS analyses were in agreement with the determination of PTX concentration.
Table 5 provides results of cell cytotoxicity 1050 data for the EST-1 cell viability assay using KB cells with the particles described above. “ND” means not determined.

[3] = DOX release experiments from dialysis cassette, Higuchi fit and f1/f2 profile comparison; assay type: physicochemical; details: at either pH value (5.0 or 7.4)
Experimental: General procedure for the DOX release experiments: To a presoaked dialysis cassette (Slide-A-Lyzer, 10 kDa MWCO, Pierce Biotechnology, Rockford Ill., USA) was added ca. 7 mL of the DOX-loaded SCK or SC-rod solution. The cassette was stirred in a beaker containing 4 L of 5 mM PBS at pH 5.0 or 7.4 and 37° C. for a period of 52 hrs. Samples (ca. 1 mL) were removed from the cassette at 0, 1, 2, 3, 5, 7, 9, 15, 21, 27, 39 and 52 h and analyzed by UV-vis spectroscopy (488 nm, ε=13050 M^−1 cm^−1) and injected back to the cassette immediately after the analysis. DOX release data points were then fitted to a third order polynomial equation.
DOX-SCR or DOX-SCK (ca. 4 mL) was transferred to a presoaked dialysis cassette (Slide-A-Lyzer, 10 kDa MWCO, Pierce Biotechnology, Rockford Ill., USA). […] Samples (ca. 1.5 mL) were removed from the cassette at 0, 1, 2, 4, 6, 9, 12, 18, 24, 30, 40, 50 and 60 h, analyzed by UV-vis (488 nm, 6=12500 M^−1cm^−1 determined by a calibration curve in PBS), and then returned to the cassette. […]
To further quantitatively understand the differences and similarities in DOX release profiles, model-independent methods were used to calculate f1, the difference factor, and f2, the similarity factor (F. O. Costa, J. J. S. Sousa, A. Pais, S. J. Formosinho, J. Controlled Release 2003, 89, 199; J. W. Moore, H. H. Flanner, Pharm. Tech. 1996, 20, 67.): […]

Work on `Oc1c(I)cc(I)c(-c2c(I)cc(I)c(O)c2I)c1I` [MP-4089] yielded a core loading [1] of 15 wt %.
In the case of `CC(=O)O[C@H]1C(=O)[C@@]2(C)[C@H]([C@H](OC(=O)c3ccccc3)[C@]3(O)C[C@H](OC(=O)[C@H](O)[C@@H](NC(=O)c4ccccc4)c4ccccc4)C(C)=C1C3(C)C)[C@]1(OC(C)=O)CO[C@@H]1C[C@@H]2O` [Paclitaxel, paclitaxel], the IC50 ([2]; 2 hr treatment, 60 nm particles, read-out: PTX 2 hr IC50) is reported as 50 nM, the IC50 ([2]; 72 hr, 60 nm particles, read-out: PTX 72 hr IC50) is reported as 7 nM and the IC50 ([2]; after one day of loading, 10 nm vs. 20 nm particles, read-out: 2 hr IC50) is reported as 45 nM. For the same compound, the IC50 ([2]; after two weeks of loading, 10 nm vs. 20 nm particles, read-out: 72 hr IC50) was 2 nM.
For doxorubicin [free DOX], the “time to complete release from the dialysis cassette” value [3] was ≤ 4 h and the “DOX release from the dialysis cassette” value ([3]; in 3 h) was 95%.
